From ChEMBL document CHEMBL3217579, “Prodrug ionic liquids: functionalizing neutral active pharmaceutical ingredients to take advantage of the ionic liquid form” (Medchemcomm, 2013)

Assays:
[1] = Prodrug conversion in PBS buffer assessed as acetominophen formation at pH 7.4 after 210 mins; assay type: physicochemical; conditions: pH 7.4, 3.5 h
[2] = Prodrug conversion in simulated intestinal fluid assessed as acetominophen formation at pH 6.8 after 210 mins; assay type: ADME; conditions: simulated gi fluid, pH 6.8, 3.5 h
[3] = Prodrug conversion in simulated gastric fluid assessed as acetominophen formation at pH 1.2 after 210 mins; assay type: ADME, Stomach; conditions: simulated gi fluid, pH 1.2, 3.5 h

Measured: Drug metabolism

CC(=O)Nc1ccc(OC(=O)Cn2cc[n+](C)c2)cc1.[Cl-]
Active: all assays above
